Laboratory results published in patent US9890139B2, “CYP17 inhibitors/antiandrogens” (Orion Corporation, priority 2013, dated 2018).

Target: T1, 17,20 lyase (CYP17) (Homo sapiens, UniProt P05093)
T1 construct: endogenous in cells; host or cells: H295R human adrenocortical carcinoma cells
T1 sequence (P05093 1-508): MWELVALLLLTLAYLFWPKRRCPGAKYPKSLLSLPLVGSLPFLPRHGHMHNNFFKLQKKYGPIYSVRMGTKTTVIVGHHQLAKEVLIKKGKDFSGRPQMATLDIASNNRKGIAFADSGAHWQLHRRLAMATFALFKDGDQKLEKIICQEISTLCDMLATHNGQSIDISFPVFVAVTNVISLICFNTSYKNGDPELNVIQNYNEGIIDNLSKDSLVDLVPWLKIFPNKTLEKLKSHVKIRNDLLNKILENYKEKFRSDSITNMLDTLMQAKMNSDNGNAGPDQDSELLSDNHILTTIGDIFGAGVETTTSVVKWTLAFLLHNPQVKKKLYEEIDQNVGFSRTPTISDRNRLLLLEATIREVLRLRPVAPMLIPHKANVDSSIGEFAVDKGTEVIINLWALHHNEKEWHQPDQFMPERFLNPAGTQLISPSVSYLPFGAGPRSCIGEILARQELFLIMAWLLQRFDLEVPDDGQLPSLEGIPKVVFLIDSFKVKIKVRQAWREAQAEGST
Assay: 17,20 lyase (CYP17) inhibition, acetic acid release assay (AARA) on H295R cells
Format: cell-based
Settings: human H295R adrenocortical carcinoma cells; overnight (16-19 h) with 17α-[21-3H]hydroxypregnenolone; 3H-acetic acid release; 1% DMSO; quadruplicates; read-out: CYP17 inhibition IC50
Method: The ability of the test compounds to inhibit 17,20 lyase catalysed conversion of 17α-hydroxypregnenolone to dehydroepiandrosterone and acetic acid was measured by acetic acid release assay (AARA) on human H295R adrenocortical carcinoma cell line (Grigoryev, D. N. et al., Analytical Biochemistry 1999; 267:319-330). […] The final DMSO concentration was 1%. Cell culture medium was extracted with dextran-coated charcoal suspension (Isomaa, V. et al., Endocrinology 1982; 111(3):833-843). ^3H-acetic acid was determined by mixing 100 μl of supernatant fraction in 200 μl of scintillation fluid (OptiPhase SuperMix, Perkin Elmer). Radioactivity was measured using a Microbeta scintillation counter (1450 MicroBeta Trilux, Wallac). All the test compounds were studied in quadruplicates.

SMILES | IC50
CN(c1ccc(C#N)c(C(F)(F)F)c1)C1CC(c2c[nH]cn2)=CCC1(C)C (single isomer, unassigned; diastereomer 1) [Ex. 244 diastereomer 1, 4-{[3-(1H-Imidazol-4-yl)-6,6-dimethylcyclohex-3-enyl](methyl)amino}-2-(trifluoromethyl)benzonitrile] | 0.116 µM
CN(c1ccc(C#N)c(Cl)c1)C1CC(c2c[nH]cn2)=CCC1(C)C (single isomer, unassigned) [Ex. 2 enantiomer 1, 4-((3-(1H-imidazol-4-yl)-6,6-dimethylcyclohex-3-enyl)(methyl)amino)-2-chlorobenzonitrile] | 0.027 µM
CCN(c1ccc(C#N)c(C(F)(F)F)c1)C1CCC=C(c2cccnc2)C1(C)C (centres unmarked) [Ex. 97, 4-((2,2-dimethyl-3-(pyridin-3-yl)cyclohex-3-en-1-yl)(ethyl)amino)-2-(trifluoromethyl)benzonitrile] | 0.066 µM
CN(c1ccc(C#N)c(C(F)(F)F)c1)C1C=C(n2ccnc2)CCC1 (single isomer, unassigned) [Ex. 6 enantiomer 1, 4-((3-(1H-imidazol-1-yl)cyclohex-2-enyl)(methyl)amino)-2-(trifluoromethyl)benzonitrile] | 0.074 µM
CN(c1ccc(C#N)c(C(F)(F)F)c1)C1C=C(c2cncn2CCOCc2ccccc2)CCC1(C)C (centres unmarked) [Ex. 220, 4-((3-(1-(2-(benzyloxy)ethyl)-1H-imidazol-5-yl)-6,6-dimethylcyclohex-2-en-1-yl)(methyl)amino)-2-(trifluoromethyl)benzonitrile] | 0.01 µM
CCN(c1ccc(C#N)c(C(F)(F)F)c1)C1CCCC(c2cnc[nH]2)C1 (stereo not drawn) [Ex. 224 cis-diasteromer, 4-((3-(1H-imidazol-5-yl)cyclohexyl)(ethyl)amino)-2-(trifluoromethyl)benzonitrile] | 0.059 µM
CN(c1ccc(C#N)c(C(F)(F)F)c1)C1CC(n2ccnc2)CCC1(C)C (single isomer, unassigned) [Ex. 47 cis-enantiomer 3, 4-((5-(1H-Imidazol-1-yl)-2,2-dimethylcyclohexyl)(methyl)amino)-2-(trifluoromethyl)benzonitrile] | 0.018 µM
CCN(c1ccc(C#N)c(C(F)(F)F)c1)C1CCC=C(c2c[nH]cn2)C1(C)C (centres unmarked) [Ex. 100, 4-((3-(1H-imidazol-4-yl)-2,2-dimethylcyclohex-3-en-1-yl)(ethyl)amino)-2-(trifluoromethyl)benzonitrile] | 0.036 µM
CCN(c1ccc(C#N)c(C(F)F)c1)C1C=C(n2ccnc2)CCC1(C)C (single isomer, unassigned) [Ex. 31 enantiomer 1, 4-((3-(1H-imidazol-1-yl)-6,6-dimethylcyclohex-2-enyl)(ethyl)amino)-2-(difluoromethyl)benzonitrile] | 0.023 µM

Target: T2, full-length human AR (Homo sapiens, UniProt P10275)
T2 construct: expression vector encoding full-length human AR; expressed in transfected cells; host or cells: HEK293 (hAR/HEK293 cells)
T2 sequence (P10275 1-920): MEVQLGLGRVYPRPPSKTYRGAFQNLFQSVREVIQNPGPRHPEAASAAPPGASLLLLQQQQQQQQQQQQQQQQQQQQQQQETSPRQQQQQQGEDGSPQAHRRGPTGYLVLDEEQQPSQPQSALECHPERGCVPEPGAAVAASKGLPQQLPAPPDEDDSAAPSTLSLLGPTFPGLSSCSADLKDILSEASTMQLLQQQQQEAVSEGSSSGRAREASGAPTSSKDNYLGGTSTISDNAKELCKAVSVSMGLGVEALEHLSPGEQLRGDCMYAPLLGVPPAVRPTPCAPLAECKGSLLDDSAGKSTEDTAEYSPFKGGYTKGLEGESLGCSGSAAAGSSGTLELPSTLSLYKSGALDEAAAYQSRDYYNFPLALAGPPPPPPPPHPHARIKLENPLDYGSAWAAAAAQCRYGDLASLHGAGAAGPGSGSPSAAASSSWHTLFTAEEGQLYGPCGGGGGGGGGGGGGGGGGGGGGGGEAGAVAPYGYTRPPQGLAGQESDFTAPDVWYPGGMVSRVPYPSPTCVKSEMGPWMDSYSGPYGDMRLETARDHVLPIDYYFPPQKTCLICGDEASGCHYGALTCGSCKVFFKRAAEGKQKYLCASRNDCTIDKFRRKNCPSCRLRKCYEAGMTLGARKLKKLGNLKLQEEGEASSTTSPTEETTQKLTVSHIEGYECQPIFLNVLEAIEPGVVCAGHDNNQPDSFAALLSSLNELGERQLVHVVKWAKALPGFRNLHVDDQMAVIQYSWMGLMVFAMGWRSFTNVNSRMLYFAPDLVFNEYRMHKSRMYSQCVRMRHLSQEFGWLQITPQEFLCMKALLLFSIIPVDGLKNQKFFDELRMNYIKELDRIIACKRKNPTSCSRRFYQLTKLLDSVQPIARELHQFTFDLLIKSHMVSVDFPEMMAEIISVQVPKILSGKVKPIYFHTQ
Assay: AR antagonism, reporter gene assay in hAR/HEK293 cells
Format: cell-based
Settings: HEK293 cells stably transfected with full-length human AR and androgen responsive luciferase reporter; co-treated with submaximal testosterone (usually 0.45 nM); 1% DMSO; triplicates
Method: Antagonism of test compounds for AR was measured by reporter gene assay in human embryonic kidney (HEK293) cells stably transfected with an expression vector encoding full-length human AR and androgen responsive luciferase reporter gene construct (hAR/HEK293 cells). To determine antagonism for hAR, the cells were treated simultaneously with increasing concentrations of the test compound and submaximal concentration of testosterone (usually 0.45 nM). The final DMSO concentration was 1%. All test compounds were studied in triplicates. The cells were incubated for […] before measurement of luciferase activity using Luciferase Assay System (Promega Corporation).

SMILES | IC50
CCN(c1ccc(C#N)c(C(F)(F)F)c1)C1CCCC(n2ccnc2)C1 (single isomer, unassigned) [Ex. 72 cis-enantiomer 2, 4-((3-(1H-imidazol-1-yl)cyclohexyl)(ethyl)amino)-2-(trifluoromethyl)benzonitrile] | 0.027 µM
CCN(c1ccc(C#N)c(C(F)(F)F)c1)C1CC=C(c2cnco2)C1 (single isomer, unassigned) [Ex. 233 enantiomer 2, 4-(Ethyl(3-(oxazol-5-yl)cyclopent-3-enyl)amino)-2-(trifluoromethyl)benzonitrile] | 0.029 µM
CCN(c1ccc(C#N)c(C(F)(F)F)c1)C1CCCC(c2nnco2)C1 (single isomer, unassigned; diastereomer 4) [Ex. 19 cis-diastereomer, 4-((3-(1,3,4-Oxadiazol-2-yl)cyclohexyl)(ethyl)amino)-2-(trifluoromethyl)benzonitrile] | 0.065 µM
CCN(c1ccc(C#N)c(Cl)c1)C1CCCC(c2cccnc2)C1 (single isomer, unassigned; diastereomer 2) [Ex. 76 cis-diastereomer, 2-Chloro-4-(ethyl(3-(pyridin-3-yl)cyclohexyl)amino)benzonitrile] | 0.001 µM
CCN(c1ccc(C#N)c(C(F)(F)F)c1)C1CCCC(n2cccn2)C1 (single isomer, unassigned; diastereomer 4) [Ex. 48 cis-diastereomer, 4-((-3-(1H-Pyrazol-1-yl)cyclohexyl)(ethyl)amino)-2-(trifluoromethyl)benzonitrile] | 0.024 µM
CN(c1ccc(C#N)c(C(F)(F)F)c1)[C@@H]1C=C(n2ccnc2)[C@@H](O)CC1(C)C [Ex. 262, 4-(((1R,4S)-4-hydroxy-3-(1H-imidazol-1-yl)-6,6-dimethylcyclohex-2-en-1-yl)(methyl)-amino)-2-(trifluoromethyl)benzonitrile] | 0.089 µM
CCN(c1ccc(C#N)c(C(F)(F)F)c1)C1CCCC(c2nnn(C)n2)C1 (single isomer, unassigned; isomer 4) [Ex. 11 cis of 2,5-isomer, 4-(Ethyl(3-(2-methyl-2H-tetrazol-5-yl)cyclohexyl)amino)-2-(trifluoromethyl)benzonitrile] | 0.026 µM
CCN(c1ccc(C#N)c(C(F)(F)F)c1)C1CCCC(n2ccnn2)C1 (stereo not drawn) [Ex. 223, 4-((3-(1H-1,2,3-triazol-1-yl)cyclohexyl)(ethyl)amino)-2-(trifluoromethyl)-benzonitrile (cis-diastereomer)] | 0.079 µM
CCN(c1ccc(C#N)c(Cl)c1)C1CCCC(c2cncc(OC)c2)C1 (single isomer, unassigned; diastereomer 2) [Ex. 83 cis-diastereomer, 2-Chloro-4-(ethyl(3-(5-methoxypyridin-3-yl)cyclohexyl)amino)benzonitrile] | 0.016 µM
CCN(c1cc(F)c(C#N)c(Cl)c1)C1CCC=C(c2cccnc2)C1 (centres unmarked) [Ex. 132, 2-Chloro-4-(ethyl(3-(pyridin-3-yl)cyclohex-3-en-1-yl)amino)-6-fluorobenzonitrile] | 0.007 µM
CN(c1ccc(C#N)c(C(F)(F)F)c1)C1C=C(c2cncs2)CCC1 (single isomer, unassigned) [Ex. 232 enantiomer 1, 4-(Methyl(3-(thiazol-5-yl)cyclohex-2-en-1-yl)amino)-2-(trifluoromethyl)-benzonitrile] | 0.033 µM
CCN(c1ccc(C#N)c(C(F)(F)F)c1)C1CCCC(O)(c2cccnc2)C1 (single isomer, unassigned) [Ex. 216 diastereomer 2, 4-(Ethyl(3-hydroxy-3-(pyridin-3-yl)cyclohexyl)amino)-2-(trifluoromethyl)-benzonitrile] | 0.028 µM
CCN(c1ccc(C#N)c(C(F)(F)F)c1)C1C=C(n2cncn2)CCC1 (centres unmarked) [Ex. 210, 4-((3-(1H-1,2,4-triazol-1-yl)cyclohex-2-en-1-yl)(ethyl)amino)-2-(trifluoromethyl)benzonitrile] | 0.023 µM
CCN(c1ccc(C#N)c(C(F)(F)F)c1)C1CCC=C(c2ccncc2)C1 (centres unmarked) [Ex. 77, 4-(Ethyl(3-(pyridin-4-yl)cyclohex-3-en-1-yl)amino)-2-(trifluoromethyl)benzonitrile] | 0.04 µM
